# Results from US12473262B2, “Aryl hydrocarbon receptor activators” (Oregon State University, priority 2019, dated 2025).
# Biological target: aryl hydrocarbon receptor (AhR) (Mus musculus (Mouse), UniProt P30561)
# Assay: AhR ligand screening: AhRE-luciferase reporter in transfected Hepa1 cells
# Assay type: cell-based
# Conditions: for Fold @ 1 nM: fold change of luciferase expression at 1 nM test compound relative to vehicle (0.1% DMSO); for Fold @ 100 nM: fold change of luciferase expression at 100 nM test compound relative to vehicle (0.1% DMSO); for Fold @ 10 uM: fold change of luciferase expression at 10 uM test compound relative to vehicle (0.1% DMSO); for Fold relative to benchmark @ 100 nM: luciferase expression at 100 nM test compound relative to 100 nM benchmark compound 11-cl-BBQ
# Procedure, shortened: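 Values are fold luciferase induction relative to vehicle (0.1% DMSO), read by luminometry of lysates from Hepa1 cells carrying an AhRE-driven luciferase reporter. Cells were seeded at 1×10^4 per well, grown overnight and treated with compound before lysis.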
# Sequence of aryl hydrocarbon receptor (AhR) (P30561 10-805): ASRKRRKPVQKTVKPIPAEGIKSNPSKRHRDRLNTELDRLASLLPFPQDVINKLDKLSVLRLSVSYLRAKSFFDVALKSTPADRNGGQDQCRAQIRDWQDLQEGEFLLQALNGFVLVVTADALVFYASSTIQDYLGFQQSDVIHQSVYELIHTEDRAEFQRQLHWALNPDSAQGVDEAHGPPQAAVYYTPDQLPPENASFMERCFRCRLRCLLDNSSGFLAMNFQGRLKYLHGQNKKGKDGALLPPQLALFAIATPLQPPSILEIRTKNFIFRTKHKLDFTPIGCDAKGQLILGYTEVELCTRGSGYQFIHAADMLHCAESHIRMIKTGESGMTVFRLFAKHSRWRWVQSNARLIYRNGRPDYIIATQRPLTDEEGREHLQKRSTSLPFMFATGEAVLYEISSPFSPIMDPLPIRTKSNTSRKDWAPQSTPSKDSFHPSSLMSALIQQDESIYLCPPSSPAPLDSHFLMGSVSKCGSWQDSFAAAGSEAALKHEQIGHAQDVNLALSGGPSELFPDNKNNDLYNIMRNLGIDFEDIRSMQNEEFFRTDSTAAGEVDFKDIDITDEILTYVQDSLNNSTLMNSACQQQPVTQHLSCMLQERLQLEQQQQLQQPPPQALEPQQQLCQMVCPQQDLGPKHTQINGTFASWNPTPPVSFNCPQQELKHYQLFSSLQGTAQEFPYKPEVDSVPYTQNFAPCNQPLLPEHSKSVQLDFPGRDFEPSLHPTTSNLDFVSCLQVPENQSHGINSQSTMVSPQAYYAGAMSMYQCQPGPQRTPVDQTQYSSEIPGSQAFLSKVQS
# Sequence of aryl hydrocarbon receptor (AhR) (P53762 whole entry partner): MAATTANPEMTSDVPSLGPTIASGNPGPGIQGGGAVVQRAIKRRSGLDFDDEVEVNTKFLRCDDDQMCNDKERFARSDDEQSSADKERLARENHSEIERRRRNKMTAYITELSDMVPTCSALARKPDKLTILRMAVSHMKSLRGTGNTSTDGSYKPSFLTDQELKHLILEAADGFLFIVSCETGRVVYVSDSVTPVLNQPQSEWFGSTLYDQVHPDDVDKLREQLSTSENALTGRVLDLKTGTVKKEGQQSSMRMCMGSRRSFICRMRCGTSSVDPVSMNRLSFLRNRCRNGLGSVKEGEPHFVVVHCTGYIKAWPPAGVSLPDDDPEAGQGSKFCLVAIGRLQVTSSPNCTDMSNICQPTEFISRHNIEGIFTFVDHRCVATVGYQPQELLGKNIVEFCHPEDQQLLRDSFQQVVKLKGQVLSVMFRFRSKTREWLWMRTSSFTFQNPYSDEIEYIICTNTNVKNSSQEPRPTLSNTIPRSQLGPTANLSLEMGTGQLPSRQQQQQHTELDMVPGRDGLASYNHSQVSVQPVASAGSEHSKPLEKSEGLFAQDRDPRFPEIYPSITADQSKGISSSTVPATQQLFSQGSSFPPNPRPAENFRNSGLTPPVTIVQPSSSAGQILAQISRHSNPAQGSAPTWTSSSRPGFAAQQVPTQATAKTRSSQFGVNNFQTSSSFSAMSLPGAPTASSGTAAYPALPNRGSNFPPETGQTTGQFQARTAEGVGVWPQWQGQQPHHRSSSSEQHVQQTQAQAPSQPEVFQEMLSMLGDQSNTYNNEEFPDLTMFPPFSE
Compound,Fold @ 1 nM [fold],Fold @ 100 nM [fold],Fold @ 10 uM [fold],Fold relative to benchmark @ 100 nM [fold]
O=C(c1ccccc1)n1c(-c2cccc3c2CCCC3)nc2cc(Cl)ccc21 [Compound 777],1,2,6,0.08
O=C(c1ccccc1)n1c(-c2cccc3c2CCCC3)nc2ccc(Cl)cc21 [Compound 778],1,1,8,0.04
O=C(c1ccc(F)c(F)c1)n1c(-c2cccc3c2CCCC3)nc2cc(Cl)ccc21 [Compound 779],1,1,5,0.04
O=C(c1ccc(F)c(F)c1)n1c(-c2cccc3c2CCCC3)nc2ccc(Cl)cc21 [Compound 780],1,1,7,0.04
O=S(=O)(C1CC1)n1c(-c2cccc3ccccc23)nc2cc(Cl)ccc21 [Compound 783],1,1,24,0.03
O=S(=O)(C1CC1)n1c(-c2cccc3ccccc23)nc2ccc(Cl)cc21 [Compound 784],1,2,34,0.07
CC(C)(C)c1cccc(-c2nc3cc(Cl)ccc3n2C(=O)c2ccc(F)c(F)c2)c1 [Compound 787],1,1,4,0.04
O=C(c1ccc(F)c(F)c1)n1c(-c2cccc(C(F)(F)F)c2)nc2cc(Cl)ccc21 [Compound 788],1,2,19,0.08
O=C(c1ccccc1)n1c(-c2cccc(C(F)(F)F)c2)nc2ccc(Cl)cc21 [Compound 789],1,3,8,0.12
CC(C)(C)c1cccc(-c2nc3cc(Cl)ccc3n2C(=O)c2ccccc2)c1 [Compound 790],1,1,2,0.04
Cc1cccc(-c2nc3cc(Cl)ccc3n2C(=O)c2ccc(F)c(F)c2)c1Cl [Compound 791],1,1,26,0.04
O=C(c1ccc(F)c(F)c1)n1c(-c2ccc(F)c3ccccc23)nc2cc(Cl)ccc21 [Compound 792],1,2,19,0.08
O=C(c1ccc2c(c1)OCCO2)n1c(-c2cccc3ccccc23)nc2cc(Cl)ccc21 [Compound 850],1,22,33,0.88
O=C(c1ccc2c(c1)OCCO2)n1c(-c2cccc3ccccc23)nc2cc(Cl)ccc21 [Compound 851],1,21,29,0.84
COc1ccc(Cn2c(-c3cccc4ccccc34)nc3cc(Cl)ccc32)cc1 [Compound 852],1,1,29,0.03
COc1ccc(Cn2c(-c3cccc4ccccc34)nc3ccc(Cl)cc32)cc1 [Compound 853],1,1,11,0.03
"Fc1ccc(-n2c(-c3cccc4ccccc34)nc3cc(Cl)ccc32)nc1 [Compound 854, 5-chloro-1-(5-fluoropyridin-2-yl)-2-(naphthalen-1-yl)-1H-benzo[d]imidazole]",1,1,4,0.03

Compound,Fold @ 1 nM [fold],Fold @ 100 nM [fold],Fold @ 10 uM [fold],Fold relative to benchmark @ 100 nM [fold]
O=C(c1cnc2ccccc2c1)n1c(-c2cccc3ccccc23)nc2cc(Cl)ccc21 [Compound 855],1,33,44,1.14
O=C(c1cnc2ccccc2c1)n1c(-c2cccc3ccccc23)nc2ccc(Cl)cc21 [Compound 856],1,38,46,1.31
O=C(c1ccc(F)c(F)c1)n1c(-c2cc3ccccc3o2)nc2cc(Cl)ccc21 [Compound 857],1,12,75,0.41
O=C(c1ccc(F)c(F)c1)n1c(-c2cc3ccccc3o2)nc2ccc(Cl)cc21 [Compound 858],1,10,73,0.34
O=C(C1CCCCC1)n1c(-c2cc3ccccc3o2)nc2cc(Cl)ccc21 [Compound 859],1,12,80,0.41
Cn1ncc2c(-c3nc4cc(Cl)ccc4n3C(=O)c3ccc(F)c(F)c3)cccc21 [Compound 860],1,3,88,0.1
O=C(c1ccc(F)c(F)c1)n1c(-c2csc3ccccc23)nc2cc(Cl)ccc21 [Compound 861],1,2,90,0.07
O=C(c1ccc(F)c(F)c1)n1c(-c2csc3ccccc23)nc2ccc(Cl)cc21 [Compound 862],1,2,82,0.07
O=C(c1ccccc1)n1c(-c2ccc(F)c3ccccc23)nc2cc(Cl)ccc21 [Compound 863],1,2,34,0.07
O=C(C1CCCCC1)n1c(-c2cccc3ccccc23)nc2cc(Cl)ccc21 [Compound 866],1,34,50,1.17
Clc1ccc2c(c1)nc(-c1cccc3ccccc13)n2Cc1ccnc2ccccc12 [Compound 867],1,2,32,0.07
Clc1ccc2nc(-c3cccc4ccccc34)n(Cc3ccnc4ccccc34)c2c1 [Compound 868],1,2,28,0.07
O=C(c1ccc(F)c(F)c1)n1c(-c2ccc(Cl)c3ccccc23)nc2cc(Cl)ccc21 [Compound 869],1,12,68,0.41
O=C(c1ccc(F)c(F)c1)n1c(-c2ccc(Cl)c3ccccc23)nc2ccc(Cl)cc21 [Compound 870],1,9,74,0.31
Fc1cccc(F)c1Cn1c(-c2cccc3ccccc23)nc2cc(Cl)ccc21 [Compound 871],1,1,12,0.02
N#Cc1ccc(C(=O)c2c[nH]c3ccc(Cl)cc23)cc1 [Compound 874],1,7,52,0.13
